Results published in patent publication US9540366B2, “Ring-fused heterocyclic compound” (Kyowa Hakko Kirin Co., Ltd., priority 2012, dated 2017).
Structures can show the parent of a compound that is named as a salt. Where two headings read alike, the source gives them in different places.

Target: T1, human Cav3.2 T-type Ca2+ channel (Homo sapiens, UniProt O95180)
T1 construct: expressed in transfected cells; host or cells: KJMGER8 cells (Namalwa cell-derived cell line)
Assay: Inhibitory effect for intracellular calcium response via Cav3.2 T-type Ca2+ channels (FLIPR Calcium 3 Assay Kit)
Type: cell-based

[1] = human Cav3.2-expressing KJMGER8 cells (Namalwa-derived), calcium response induced by 5 mmol/L CaCl2, 3 μmol/L mibefradil as reference, read-out: IC50 for the human Cav3.2 T-type Ca2+ current

T1 sequence (O95180 whole entry): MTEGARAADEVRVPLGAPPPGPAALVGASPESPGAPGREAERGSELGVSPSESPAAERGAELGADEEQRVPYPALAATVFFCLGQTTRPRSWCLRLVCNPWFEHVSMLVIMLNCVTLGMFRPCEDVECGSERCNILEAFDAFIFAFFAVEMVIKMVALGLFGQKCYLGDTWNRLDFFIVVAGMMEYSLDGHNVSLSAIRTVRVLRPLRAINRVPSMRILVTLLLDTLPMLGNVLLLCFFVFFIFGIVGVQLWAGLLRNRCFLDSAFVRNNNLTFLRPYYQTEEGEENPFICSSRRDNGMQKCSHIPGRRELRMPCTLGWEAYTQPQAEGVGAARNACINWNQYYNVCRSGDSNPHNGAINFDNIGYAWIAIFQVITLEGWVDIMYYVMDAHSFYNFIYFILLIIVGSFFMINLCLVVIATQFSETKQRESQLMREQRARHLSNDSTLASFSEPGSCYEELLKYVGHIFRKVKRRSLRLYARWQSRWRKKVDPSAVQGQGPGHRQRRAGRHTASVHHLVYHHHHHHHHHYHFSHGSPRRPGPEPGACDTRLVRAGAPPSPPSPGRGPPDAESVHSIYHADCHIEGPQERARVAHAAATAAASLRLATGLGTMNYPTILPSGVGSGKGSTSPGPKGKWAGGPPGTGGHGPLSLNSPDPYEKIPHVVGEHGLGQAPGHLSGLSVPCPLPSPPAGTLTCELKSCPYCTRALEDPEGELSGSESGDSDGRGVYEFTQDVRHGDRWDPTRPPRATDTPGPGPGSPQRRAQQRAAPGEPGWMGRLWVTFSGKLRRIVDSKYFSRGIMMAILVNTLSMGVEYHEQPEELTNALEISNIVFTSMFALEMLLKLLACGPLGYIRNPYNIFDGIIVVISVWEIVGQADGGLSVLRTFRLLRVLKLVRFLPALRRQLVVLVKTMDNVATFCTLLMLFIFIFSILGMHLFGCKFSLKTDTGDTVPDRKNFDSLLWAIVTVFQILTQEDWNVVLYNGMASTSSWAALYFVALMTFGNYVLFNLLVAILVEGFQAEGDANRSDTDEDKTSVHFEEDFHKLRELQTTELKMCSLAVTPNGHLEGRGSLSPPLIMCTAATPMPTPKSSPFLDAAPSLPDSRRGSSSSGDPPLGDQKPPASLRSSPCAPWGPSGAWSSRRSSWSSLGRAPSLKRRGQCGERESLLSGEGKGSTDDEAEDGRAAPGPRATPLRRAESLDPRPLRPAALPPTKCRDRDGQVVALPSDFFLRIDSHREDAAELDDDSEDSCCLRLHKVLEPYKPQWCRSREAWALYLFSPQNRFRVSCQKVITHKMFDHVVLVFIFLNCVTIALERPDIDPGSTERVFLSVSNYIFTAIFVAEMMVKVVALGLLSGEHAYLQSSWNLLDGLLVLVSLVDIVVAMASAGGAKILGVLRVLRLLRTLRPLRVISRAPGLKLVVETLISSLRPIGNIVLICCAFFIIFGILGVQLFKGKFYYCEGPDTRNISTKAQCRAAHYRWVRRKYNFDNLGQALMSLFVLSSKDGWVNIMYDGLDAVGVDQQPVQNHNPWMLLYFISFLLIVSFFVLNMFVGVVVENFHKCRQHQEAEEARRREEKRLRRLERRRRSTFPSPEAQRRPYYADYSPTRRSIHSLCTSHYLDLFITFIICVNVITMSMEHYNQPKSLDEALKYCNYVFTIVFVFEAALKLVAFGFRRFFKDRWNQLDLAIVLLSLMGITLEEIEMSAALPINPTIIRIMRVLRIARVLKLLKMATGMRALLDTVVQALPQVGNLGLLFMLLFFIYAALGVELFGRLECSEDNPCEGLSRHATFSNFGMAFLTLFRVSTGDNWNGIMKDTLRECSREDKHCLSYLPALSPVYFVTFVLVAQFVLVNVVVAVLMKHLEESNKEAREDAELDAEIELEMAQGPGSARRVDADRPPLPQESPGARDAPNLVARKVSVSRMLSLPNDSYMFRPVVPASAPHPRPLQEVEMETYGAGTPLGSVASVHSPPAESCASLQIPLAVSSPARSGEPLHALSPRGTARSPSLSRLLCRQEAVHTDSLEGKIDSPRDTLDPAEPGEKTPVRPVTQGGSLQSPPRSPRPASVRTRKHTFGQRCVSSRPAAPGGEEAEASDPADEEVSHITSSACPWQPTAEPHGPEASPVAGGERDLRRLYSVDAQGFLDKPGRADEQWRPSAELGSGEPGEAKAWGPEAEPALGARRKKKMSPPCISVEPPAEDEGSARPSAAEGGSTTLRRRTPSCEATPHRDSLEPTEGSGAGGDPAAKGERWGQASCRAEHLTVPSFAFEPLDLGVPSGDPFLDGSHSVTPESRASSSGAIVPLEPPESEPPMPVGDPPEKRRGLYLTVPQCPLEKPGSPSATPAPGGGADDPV

SMILES	IC50 [nM]	IC50 [1] [nM]
CCOC(=O)C(=O)CNC(=O)c1cc(C)n2c(CC3CCC(F)(F)CC3)c(C(F)(F)F)nc2c1 [Compound 124, Ethyl 3-{3-[(4,4-difluorocyclohexyl)methyl]-5-methyl-2-(trifluoromethyl)imidazo[1,2-a]pyridine-7-carboxamide}-2-oxopropanoate]	≤ 100	
O=C(NCC1(O)CC1)c1cc(Cl)n2c(CC3CCC(F)(F)CC3)c(C(F)(F)F)nc2c1 [Compound 125, 5-Chloro-3-[(4,4-difluorocyclohexyl)methyl]-N-[(1-hydroxycyclopropyl)methyl]-2-(trifluoromethyl)imidazo[1,2-a]pyridine-7-carboxamide]	≤ 100	
Cc1cc(C(=O)NC2CCC3(CC2)COC3)cc2nc(C(F)(F)F)c(CC3CCC(F)(F)CC3)n12 [Compound 126, 3-[(4,4-Difluorocyclohexyl)methyl]-5-methyl-N-(2-oxaspiro[3.5]nonan-7-yl)-2-(trifluoromethyl)imidazo[1,2-a]pyridine-7-carboxamide]		≤ 100
CC(F)(F)c1nc2cc(C(=O)NC3CCC4(CC3)COC4)c(Cl)cn2c1CC1CCC(F)(F)CC1 [Compound 127, 6-Chloro-3-[(4,4-difluorocyclohexyl)methyl]-2-(1,1-difluoroethyl)-N-(2-oxaspiro[3.5]nonan-7-yl)imidazo[1,2-a]pyridine-7-carboxamide]	≤ 100	
CC(NC(=O)c1cc(Cl)n2c(CC3CCC(F)(F)CC3)c(C(F)(F)F)nc2c1)C(=O)NC1CCOCC1 (stereo not drawn) [Compound 128, 5-Chloro-3-[(4,4-difluorocyclohexyl)methyl]-N-[1-oxo-1-(tetrahydro-2H-pyran-4-ylamino)propan-2-yl]-2-(trifluoromethyl)imidazo[1,2-a]pyridine-7-carboxamide]	≤ 100	
O=C(CNC(=O)c1cc(Cl)n2c(CC3CCC(F)(F)CC3)c(C(F)(F)F)nc2c1)NC1CCOC1 (stereo not drawn) [Compound 131, 5-Chloro-3-[(4,4-difluorocyclohexyl)methyl]-N-[2-oxo-2-(tetrahydrofuran-3-ylamino)ethyl]-2-(trifluoromethyl)imidazo[1,2-a]pyridine-7-carboxamide]	≤ 100	
COc1c(C(=O)NC2CCOCC2)cc(C)n2c(CC3CCC(F)(F)CC3)c(C(F)(F)F)nc12 [Compound 133, 3-[(4,4-Difluorocyclohexyl)methyl]-8-methoxy-5-methyl-N-(tetrahydro-2H-pyran-4-yl)-2-(trifluoromethyl)imidazo[1,2-a]pyridine-7-carboxamide]	≤ 100	
CCOC(=O)C1(NC(=O)c2cc(Cl)n3c(CC4CCC(F)(F)CC4)c(C(F)(F)F)nc3c2)CC1 [Compound 135, Ethyl 1-{5-chloro-3-[(4,4-difluorocyclohexyl)methyl]-2-(trifluoromethyl)imidazo[1,2-a]pyridine-7-carboxamide}cyclopropanecarboxylate]	≤ 100	
Cc1cc(C(=O)NC2CC3(COC3)C2)cc2nc(C(C)(F)F)c(CC3CCC(F)(F)CC3)n12 [Compound 136, 3-[(4,4-Difluorocyclohexyl)methyl]-2-(1,1-difluoroethyl)-5-methyl-N-(2-oxaspiro[3.3]heptan-6-yl)imidazo[1,2-a]pyridine-7-carboxamide]	≤ 100	
Cc1cc(C(=O)NC2CC3(COC3)C2)cc2nc(C(C)(C)C)c(CC3CCC(F)(F)CC3)n12 [Compound 137, 2-tert-Butyl-3-[(4,4-difluorocyclohexyl)methyl]-5-methyl-N-(2-oxaspiro[3.3]heptan-6-yl)imidazo[1,2-a]pyridine-7-carboxamide]	≤ 100	
Cc1cc(NC(=O)c2cc(C#N)n3c(CC4CCC(F)(F)CC4)c(C(F)(F)F)nc3c2)on1 [Compound 138, 5-Cyano-3-[(4,4-difluorocyclohexyl)methyl]-N-(3-methylisoxazol-5-yl)-2-(trifluoromethyl)imidazo[1,2-a]pyridine-7-carboxamide]		≤ 100
CCOC(=O)CNC(=O)c1cc(C#N)n2c(CC3CCC(F)(F)CC3)c(C(F)(F)F)nc2c1 [Compound 139, Ethyl 2-{5-cyano-3-[(4,4-difluorocyclohexyl)methyl]-2-(trifluoromethyl)imidazo[1,2-a]pyridine-7-carboxamide}acetate]	≤ 100	
N#Cc1cc(C(=O)NC2CCOC2=O)cc2nc(C(F)(F)F)c(CC3CCC(F)(F)CC3)n12 (stereo not drawn) [Compound 140, 5-Cyano-3-[(4,4-difluorocyclohexyl)methyl]-N-(2-oxotetrahydrofuran-3-yl)-2-(trifluoromethyl)imidazo[1,2-a]pyridine-7-carboxamide]	≤ 100	
COC1(CNC(=O)c2cc(C#N)n3c(CC4CCC(F)(F)CC4)c(C(F)(F)F)nc3c2)CCOCC1 [Compound 141, 5-Cyano-3-[(4,4-difluorocyclohexyl)methyl]-N-[(4-methoxytetrahydro-2H-pyran-4-yl)methyl]-2-(trifluoromethyl)imidazo[1,2-a]pyridine-7-carboxamide]	≤ 100	
O=C(NNC(=O)C1CC1)c1cc(Cl)n2c(CC3CCC(F)(F)CC3)c(C(F)(F)F)nc2c1 [Compound 142, 5-Chloro-N′-(cyclopropanecarbonyl)-3-[(4,4-difluorocyclohexyl)methyl]-2-(trifluoromethyl)imidazo[1,2-a]pyridine-7-carbohydrazide]	≤ 100	
O=C(CC1CCOCC1)NNC(=O)c1cc(Cl)n2c(CC3CCC(F)(F)CC3)c(C(F)(F)F)nc2c1 [Compound 143, 5-Chloro-3-[(4,4-difluorocyclohexyl)methyl]-N′-[2-(tetrahydro-2H-pyran-4-yl)acetyl]-2-(trifluoromethyl)imidazo[1,2-a]pyridine-7-carbohydrazide]	≤ 100	
CCCCc1c(C(C)C)nc2cc(C(=O)Nc3ccccc3)ccn12 [Compound 144, 3-Butyl-2-isopropyl-N-phenylimidazo[1,2-a]pyridine-7-carboxamide]	≤ 100	
Cc1cc(C(=O)NC2CC3(COC3)C2)cc2nc(C(C)C)c(CC3CCC(F)(F)CC3)n12 [Compound 145, 3-[(4,4-Difluorocyclohexyl)methyl]-2-isopropyl-5-methyl-N-(2-oxaspiro[3.3]heptan-6-yl)imidazo[1,2-a]pyridine-7-carboxamide]	≤ 100	
N#Cc1cc(C(=O)NC2CC3(COC3)C2)cc2nc(C(F)(F)F)c(CC3CCC(F)(F)CC3)n12 [Compound 146, 5-Cyano-3-[(4,4-difluorocyclohexyl)methyl]-N-(2-oxaspiro[3.3]heptan-6-yl)-2-(trifluoromethyl)imidazo[1,2-a]pyridine-7-carboxamide]		≤ 100
CC(F)(F)c1nc2cc(C(=O)NC3CC4(COC4)C3)c(Cl)cn2c1CC1CCC(F)(F)CC1 [Compound 147, 6-Chloro-3-[(4,4-difluorocyclohexyl)methyl]-2-(1,1-difluoroethyl)-N-(2-oxaspiro[3.3]heptan-6-yl)imidazo[1,2-a]pyridine-7-carboxamide]	≤ 100	
CC(C)(C)c1nc2cc(C(=O)NC3CC4(COC4)C3)c(Cl)cn2c1CC1CCC(F)(F)CC1 [Compound 148, 2-tert-Butyl-6-chloro-3-[(4,4-difluorocyclohexyl)methyl]-N-(2-oxaspiro[3.3]heptane-6-yl)imidazo[1,2-a]pyridine-7-carboxamide]	≤ 100	
N#Cc1cc(C(=O)NCCCN2CCCC2=O)cc2nc(C(F)(F)F)c(CC3CCC(F)(F)CC3)n12 [Compound 149, 5-Cyano-3-[(4,4-difluorocyclohexyl)methyl]-N-[3-(2-oxopyrrolidin-1-yl)propyl]-2-(trifluoromethyl)imidazo[1,2-a]pyridine-7-carboxamide]		≤ 100
N#Cc1cc(C(=O)N2CCOC2=O)cc2nc(C(F)(F)F)c(CC3CCC(F)(F)CC3)n12 [Compound 150, 3-[(4,4-Difluorocyclohexyl)methyl]-7-(2-oxoxazolidine-3-carbonyl)-2-(trifluoromethyl)imidazo[1,2-a]pyridine-5-carbonitrile]		≤ 100
O=C(CNC(=O)c1cc(Cl)n2c(CC3CCC(F)(F)CC3)c(C(F)(F)F)nc2c1)Nc1ccccc1 [Compound 151, 5-Chloro-3-[(4,4-difluorocyclohexyl)methyl]-N-[2-oxo-2-(phenylamino)ethyl]-2-(trifluoromethyl)imidazo[1,2-a]pyridine-7-carboxamide]	≤ 100	
Cc1cc(CNC(=O)c2cc(Cl)n3c(CC4CCC(F)(F)CC4)c(C(F)(F)F)nc3c2)[nH]n1 [Compound 152, 5-Chloro-3-[(4,4-difluorocyclohexyl)methyl]-N-[(3-methyl-1H-pyrazol-5-yl)methyl]-2-(trifluoromethyl)imidazo[1,2-a]pyridine-7-carboxamide]		≤ 100
Cc1cc(CNC(=O)c2cc(Cl)n3c(CC4CCC(F)(F)CC4)c(C(F)(F)F)nc3c2)no1 [Compound 154, 5-Chloro-3-[(4,4-difluorocyclohexyl)methyl]-N-[(5-methylisoxazol-3-yl)methyl]-2-(trifluoromethyl)imidazo[1,2-a]pyridine-7-carboxamide]		≤ 100
CC(C)(CO)CNC(=O)c1cc(C#N)n2c(CC3CCC(F)(F)CC3)c(C(F)(F)F)nc2c1 [Compound 155, 5-Cyano-3-[(4,4-difluorocyclohexyl)methyl]-N-(3-hydroxy-2,2-dimethylpropyl)-2-(trifluoromethyl)imidazo[1,2-a]pyridine-7-carboxamide]	≤ 100	
CN(C)C(C)(C)CNC(=O)c1cc(C#N)n2c(CC3CCC(F)(F)CC3)c(C(F)(F)F)nc2c1 [Compound 156, 5-Cyano-3-[(4,4-difluorocyclohexyl)methyl]-N-[2-(dimethylamino)-2-methylpropyl]-2-(trifluoromethyl)imidazo[1,2-a]pyridine-7-carboxamide]	≤ 100	
CC(C)(CNC(=O)c1cc(C#N)n2c(CC3CCC(F)(F)CC3)c(C(F)(F)F)nc2c1)COC=O [Compound 157, 3-(5-Cyano-3-[(4,4-difluorocyclohexyl)methyl]-2-(trifluoromethyl)imidazo[1,2-a]pyridine-7-carboxamide)-2,2-dimethylpropyl formate]	≤ 100	
CC(F)(F)c1nc2cc(C(=O)NC3CCOCC3)cc(C=O)n2c1CC1CCC(F)(F)CC1 [Compound 158, 3-[(4,4-Difluorocyclohexyl)methyl]-2-(1,1-difluoroethyl)-5-formyl-N-(tetrahydro-2H-pyran-4-yl)imidazo[1,2-a]pyridine-7-carboxamide]	≤ 100	
